Data from patent publication US20140309229A1, “METHODS FOR SELECTING AND TREATING CANCER IN PATIENTS WITH IGF-1R/IR INHIBITORS” (priority 2011, published 2014).

What was measured:
Test in all cases: MTS proliferation assay
Assay type in all cases: cell-based, human
NCI-H747 = test system: NCI-H747
Protocol: (§1) Cell lines and in vitro cytotoxicity assay. Cells were maintained at 37° C. under standard cell culture conditions. Cells were plated at an optimized density for each cell line per well in 96-well microtiter FALCON® plates, incubated overnight, and then exposed to a serial dilution of drug. […] The results were expressed as an IC50, which is the drug concentration required to inhibit cell proliferation to 50% of that of untreated control cells. The mean IC50 and standard deviation (SD) from multiple tests for each cell line were calculated.
(§2) In vitro Cellular Proliferation Assays.

LS-123 = test system: LS-123
Protocol: as §1, §2

RCM-1 = test system: RCM-1
Protocol: as §1, §2

SNU-C1 = test system: SNU-C1
Protocol: as §1, §2

COLO741 = test system: COLO741
Protocol: as §1, §2

MIP = test system: MIP
Protocol: as §1, §2

SK-CO-1 = details: for IC50: Homo sapiens
Protocol: as §1, §2

LS174T = test system: LS174T
Protocol: as §1, §2

LS-513 = test system: LS-513
Protocol: as §1, §2

KM12SM = test system: KM12SM
Protocol: as §1, §2

LS-1034 = test system: LS-1034
Protocol: as §1, §2

SW1417 = test system: SW1417
Protocol: as §1, §2

HCT-15 = test system: HCT-15
Protocol: as §1, §2

SW403 = test system: SW403
Protocol: as §1, §2

SW620 = test system: SW620
Protocol: as §1, §2

DIFI = test system: DIFI
Protocol: as §1, §2

LS-411N = test system: LS-411N
Protocol: as §1, §2

SNU-81 = test system: SNU-81
Protocol: as §1, §2

SNU-C2B = test system: SNU-C2B
Protocol: as §1, §2

RKO = test system: RKO
Protocol: as §1, §2

LS-180 = test system: LS-180
Protocol: as §1, §2

OUMS-23 = test system: OUMS-23
Protocol: as §1, §2

SW948 = test system: SW948
Protocol: as §1, §2

GP5D = test system: GP5D
Protocol: as §1, §2

COLO-201 = test system: COLO-201
Protocol: as §1, §2

SW1463 = test system: SW1463
Protocol: as §1, §2

CX-1 = test system: CX-1
Protocol: as §1, §2

HCC-56 = test system: HCC-56
Protocol: as §1, §2

[1] = preliminary panel of 45 CRC cell lines

SMILES: C[C@@]1(C(=O)Nc2ccc(F)nc2)CCCN1c1nc(Nc2cc(C3CC3)n[nH]2)c2cccn2n1 [BMS-754807, (2S)-1-(4-((5-cyclopropyl-1H-pyrazol-3-yl)amino)pyrrolo[2,1-f][1,2,4]triazin-2-yl)-N-(6-fluoro-3-pyridinyl)-2-methyl-2-pyrrolidinecarboxamide]
- IC50 (NCI-H747; Homo sapiens, NCI-H747, 72 h): 1160 nM
- Sensitivity Classes (NCI-H747; NCI-H747): R (“R” refers Resistant)
- Sensitivity to BMS-754807 (NCI-H747; NCI-H747, preliminary panel of 45 CRC cell lines): Resistant (resistant cell lines had IC50 values of >50 nmol/L)
- IC50 (LS-123; Homo sapiens, LS-123, 72 h): 4470 nM
- Sensitivity to BMS-754807 (LS-123; LS123, preliminary panel of 45 CRC cell lines): Resistant (resistant cell lines had IC50 values of >50 nmol/L)
- Sensitivity Classes (LS-123; LS-123): R (“R” refers Resistant)
- IC50 (RCM-1; Homo sapiens, RCM-1, 72 h): 24 nM
- Sensitivity Classes (RCM-1; RCM-1): S (“S” refers Sensitive)
- IC50 (SNU-C1; Homo sapiens, SNU-C1, 72 h): 13 nM
- Sensitivity Classes (SNU-C1; SNU-C1): S (“S” refers Sensitive)
- Sensitivity to BMS-754807 (SNU-C1; SNUC1, preliminary panel of 45 CRC cell lines): Sensitive (a sensitive cell line was classified as one with an IC50 of ≦50 nmol/L)
- Sensitivity Classes (COLO741; COLO741): R (“R” refers Resistant)
- IC50 (COLO741; Homo sapiens, COLO-741, 72 h): 1350 nM
- Sensitivity Classes (MIP): R (“R” refers Resistant)
- IC50 (MIP; Homo sapiens, 72 hrs): 4360 nM
- IC50 (SK-CO-1; SK-CO-1): 3 nM
- IC50 (SK-CO-1; SK-CO-1, 72 h): 3 nM
- Sensitivity Classes (SK-CO-1; SK-CO-1): S (“S” refers Sensitive)
- Sensitivity to BMS-754807 (SK-CO-1; SK-CO-1, preliminary panel of 45 CRC cell lines): Sensitive (a sensitive cell line was classified as one with an IC50 of ≦50 nmol/L)
- Sensitivity Classes (LS174T): R (“R” refers Resistant)
- IC50 (LS174T; Homo sapiens, 72 h): 358 nM
- Sensitivity to BMS-754807 (LS174T; [1]): Intermediate (remaining 30 cell lines classified as Intermediate or resistant)
- IC50 (LS-513; Homo sapiens, LS-513, 72 h): 15 nM
- Sensitivity to BMS-754807 (LS-513; LS513, preliminary panel of 45 CRC cell lines): Sensitive (a sensitive cell line was classified as one with an IC50 of ≦50 nmol/L)
- Sensitivity Classes (LS-513; LS-513): S (“S” refers Sensitive)
- IC50 (KM12SM; Homo sapiens, 72 h): 37 nM
- Sensitivity Classes (KM12SM; KM12SM): S (“S” refers Sensitive)
- Sensitivity to BMS-754807 (KM12SM; KM12SM, preliminary panel of 45 CRC cell lines): Sensitive (a sensitive cell line was classified as one with an IC50 of ≦50 nmol/L)
- IC50 (LS-1034; Homo sapiens, LS-1034, 72 h): 44 nM
- Sensitivity to BMS-754807 (LS-1034; LS1034, preliminary panel of 45 CRC cell lines): Sensitive (a sensitive cell line was classified as one with an IC50 of ≦50 nmol/L)
- Sensitivity Classes (LS-1034; LS-1034): S (“S” refers Sensitive)
- IC50 (SW1417; Homo sapiens, SW1417, 72 h): 106 nM
- Sensitivity Classes (SW1417; SW1417): R (“R” refers Resistant)
- Sensitivity to BMS-754807 (SW1417; SW1417, preliminary panel of 45 CRC cell lines): Intermediate (remaining 30 cell lines classified as Intermediate or resistant)
- Sensitivity to BMS-754807 (HCT-15; HCT15, preliminary panel of 45 CRC cell lines): Resistant (resistant cell lines had IC50 values of >50 nmol/L)
- Sensitivity Classes (HCT-15; HCT-15): R (“R” refers Resistant)
- IC50 (HCT-15; Homo sapiens, HCT-15, 72 h): 757 nM
- IC50 (SW403; Homo sapiens, SW-403, 72 h): 34 nM
- Sensitivity Classes (SW403; SW403): S (“S” refers Sensitive)
- Sensitivity to BMS-754807 (SW403; SW403, preliminary panel of 45 CRC cell lines): Sensitive (a sensitive cell line was classified as one with an IC50 of ≦50 nmol/L)
- IC50 (SW620; Homo sapiens, SW-620, 72 h): 1830 nM
- Sensitivity Classes (SW620; SW620): R (“R” refers Resistant)
- Sensitivity to BMS-754807 (SW620; SW620, preliminary panel of 45 CRC cell lines): Resistant (resistant cell lines had IC50 values of >50 nmol/L)
- Sensitivity Classes (DIFI; DIFI): S (“S” refers Sensitive)
- Sensitivity to BMS-754807 (DIFI; DIFI, preliminary panel of 45 CRC cell lines): Sensitive (a sensitive cell line was classified as one with an IC50 of ≦50 nmol/L)
- IC50 (DIFI; Homo sapiens, DiFi, 72 h): 12 nM
- IC50 (LS-411N; Homo sapiens, LS-411N, 72 h): 99 nM
- Sensitivity to BMS-754807 (LS-411N; LS411N, preliminary panel of 45 CRC cell lines): Intermediate (remaining 30 cell lines classified as Intermediate or resistant)
- Sensitivity Classes (LS-411N; LS-411N): R (“R” refers Resistant)
- IC50 (SNU-81; Homo sapiens, 72 h): 5000 nM
- Sensitivity Classes (SNU-81; SNU-81): R (“R” refers Resistant)
- IC50 (SNU-C2B; Homo sapiens, SNU-C2B, 72 h): 1480 nM
- Sensitivity Classes (SNU-C2B; SNU-C2B): R (“R” refers Resistant)
- Sensitivity to BMS-754807 (SNU-C2B; SNUC2B, preliminary panel of 45 CRC cell lines): Resistant (resistant cell lines had IC50 values of >50 nmol/L)
- Sensitivity Classes (RKO): R (“R” refers Resistant)
- IC50 (RKO; Homo sapiens, 72 h): 857 nM
- Sensitivity to BMS-754807 (RKO; [1]): Resistant (resistant cell lines had IC50 values of >50 nmol/L)
- IC50 (LS-180; Homo sapiens, LS180, 72 h): 629 nM
- Sensitivity to BMS-754807 (LS-180; LS180, preliminary panel of 45 CRC cell lines): Resistant (resistant cell lines had IC50 values of >50 nmol/L)
- Sensitivity Classes (LS-180; LS-180): R (“R” refers Resistant)
- IC50 (OUMS-23; Homo sapiens, OUMS-23, 72 h): 2220 nM
- Sensitivity Classes (OUMS-23; OUMS-23): R (“R” refers Resistant)
- IC50 (SW948; Homo sapiens, SW948, 72 h): 18 nM
- Sensitivity Classes (SW948; SW948): S (“S” refers Sensitive)
- Sensitivity to BMS-754807 (SW948; SW948, preliminary panel of 45 CRC cell lines): Sensitive (a sensitive cell line was classified as one with an IC50 of ≦50 nmol/L)
- Sensitivity Classes (GP5D; GP5D): R (“R” refers Resistant)
- IC50 (GP5D; Homo sapiens, GP5d, 72 h): 252 nM
- Sensitivity to BMS-754807 (COLO-201; COLO201, preliminary panel of 45 CRC cell lines): Resistant (resistant cell lines had IC50 values of >50 nmol/L)
- Sensitivity Classes (COLO-201; COLO-201): R (“R” refers Resistant)
- IC50 (COLO-201; Homo sapiens, COLO 201, 72 h): 2760 nM
- IC50 (SW1463; Homo sapiens, SW1463, 72 h): 16 nM
- Sensitivity Classes (SW1463; SW1463): S (“S” refers Sensitive)
- Sensitivity to BMS-754807 (SW1463; SW1463, preliminary panel of 45 CRC cell lines): Sensitive (a sensitive cell line was classified as one with an IC50 of ≦50 nmol/L)
- Sensitivity Classes (CX-1; CX-1): R (“R” refers Resistant)
- Sensitivity to BMS-754807 (CX-1; CX-1, preliminary panel of 45 CRC cell lines): Intermediate (remaining 30 cell lines classified as Intermediate or resistant)
- IC50 (CX-1; Homo sapiens, CX-1, 72 h): 194 nM
- Sensitivity Classes (HCC-56; HCC-56): S (“S” refers Sensitive)
- IC50 (HCC-56; Homo sapiens, 72 h): 5 nM
